# Several values for one entry are separate records, joined by “and”; a condition that tells them apart may be missing. Equal entries are not always repeated. Inconclusive results and toxic doses are left out.
# Tested on: P388 leukemia ip, CD2F1 mice, survival T/C
# Assay: NCI In Vivo Anticancer Drug Screen. Data for tumor model P388 Leukemia (intraperitoneal) in CD2F1 (CDF1) mice
# Conditions: endpoint: median survival time, higher = longer survival
# Method in brief: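 Mice carrying the transplanted tumor received test compound or vehicle. Survival was recorded in each group, and the value is the treated-group measurement divided by that of the vehicle-treated control group.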
# [1] = dose: 60.0 mg/kg/injection, schedule: Q01DX005 (ip), vehicle: Klucel (hydroxypropylcellulose) (HPC)
# [2] = dose: 120.0 mg/kg/injection, schedule: Q01DX005 (ip), vehicle: Klucel (hydroxypropylcellulose) (HPC)
# [3] = dose: 50.0 mg/kg/injection, schedule: Q01DX009 (ip), vehicle: saline
# [4] = dose: 100.0 mg/kg/injection, schedule: Q01DX009 (ip), vehicle: saline
# [5] = dose: 100.0 mg/kg/injection, schedule: Q04DX003 (ip), vehicle: Klucel (hydroxypropylcellulose) (HPC)
# [6] = dose: 200.0 mg/kg/injection, schedule: Q04DX003 (ip), vehicle: Klucel (hydroxypropylcellulose) (HPC)
# [7] = dose: 400.0 mg/kg/injection, schedule: Q04DX003 (ip), vehicle: Klucel (hydroxypropylcellulose) (HPC)
# [8] = dose: 200.0 mg/kg/injection, schedule: Q01DX009 (ip), vehicle: saline
compound,measurement,setting,value
N#CC(=O)Nc1cc(Cl)cc(Cl)c1,T/C,"dose: 7.5 mg/kg/injection, schedule: Q01DX005 (ip), vehicle: saline with Tween-80",100 % of control
same,T/C,"dose: 15.0 mg/kg/injection, schedule: Q01DX005 (ip), vehicle: saline with Tween-80",102 % of control
CN(C)C(=O)c1ccc(SC(=S)NCc2ccccc2)cc1,T/C,"dose: 15.0 mg/kg/injection, schedule: Q01DX005 (ip), vehicle: Klucel (hydroxypropylcellulose) (HPC)",103 % of control
same,T/C,"dose: 30.0 mg/kg/injection, schedule: Q01DX005 (ip), vehicle: Klucel (hydroxypropylcellulose) (HPC)",103 % of control
same,T/C,[1],101 % of control and 104 % of control
same,T/C,[2],115 % of control
Nc1nc2cc3[nH]ncc3cc2c(=O)[nH]1,T/C,"dose: 12.5 mg/kg/injection, schedule: Q01DX005 (ip), vehicle: saline with Tween-80",98 % of control
same,T/C,"dose: 25.0 mg/kg/injection, schedule: Q01DX005 (ip), vehicle: saline with Tween-80",91 % of control
same,T/C,"dose: 50.0 mg/kg/injection, schedule: Q01DX005 (ip), vehicle: saline with Tween-80",94 % of control and 97 % of control
same,T/C,"dose: 100.0 mg/kg/injection, schedule: Q01DX005 (ip), vehicle: saline with Tween-80",101 % of control
same,T/C,"dose: 200.0 mg/kg/injection, schedule: Q01DX005 (ip), vehicle: saline with Tween-80",102 % of control
CC(=O)ON(C(C)=O)c1ccc(C(=O)OC2(C)CC(C)(C)[N+]([O-])=N2)cc1 (centres undefined) (tested in a mixture with another compound),T/C,"dose: 12.5 mg/kg/injection, schedule: Q01DX009 (ip), vehicle: water",95 % of control
same,T/C,"dose: 25.0 mg/kg/injection, schedule: Q01DX009 (ip), vehicle: water",101 % of control
same,T/C,"dose: 50.0 mg/kg/injection, schedule: Q01DX009 (ip), vehicle: water",94 % of control
same,T/C,"dose: 200.0 mg/kg/injection, schedule: Q01DX009 (ip), vehicle: water",106 % of control
O=C(Nc1ncn[nH]1)C(=O)Nc1ncn[nH]1,T/C,"dose: 6.25 mg/kg/injection, schedule: Q01DX009 (ip), vehicle: saline with Tween-80",92 % of control
same,T/C,"dose: 12.5 mg/kg/injection, schedule: Q01DX009 (ip), vehicle: saline with Tween-80",94 % of control
same,T/C,"dose: 25.0 mg/kg/injection, schedule: Q01DX009 (ip), vehicle: saline with Tween-80",95 % of control
OC(c1ccccc1I1OC(C(F)(F)F)(C(F)(F)F)c2ccccc21)(C(F)(F)F)C(F)(F)F (tested in a mixture with another compound),T/C,"dose: 1.56 mg/kg/injection, schedule: Q01DX005 (ip), vehicle: Klucel (hydroxypropylcellulose) (HPC)",99 % of control
same,T/C,"dose: 3.12 mg/kg/injection, schedule: Q01DX005 (ip), vehicle: Klucel (hydroxypropylcellulose) (HPC)",93 % of control
same,T/C,"dose: 6.25 mg/kg/injection, schedule: Q01DX005 (ip), vehicle: Klucel (hydroxypropylcellulose) (HPC)",98 % of control
COC(=O)Nc1cn2nc(N)sc2n1,T/C,"dose: 100.0 mg/kg/injection, schedule: Q01DX001 (ip), vehicle: saline with Tween-80",102 % of control
same,T/C,"dose: 200.0 mg/kg/injection, schedule: Q01DX001 (ip), vehicle: saline with Tween-80",101 % of control
same,T/C,"dose: 400.0 mg/kg/injection, schedule: Q01DX001 (ip), vehicle: saline with Tween-80",99 % of control
Cc1[nH]c(=O)[nH]c(=O)c1C=O,T/C,"dose: 50.0 mg/kg/injection, schedule: Q01DX009 (ip), vehicle: saline with Tween-80",103 % of control
same,T/C,"dose: 100.0 mg/kg/injection, schedule: Q01DX009 (ip), vehicle: saline with Tween-80",106 % of control
same,T/C,"dose: 200.0 mg/kg/injection, schedule: Q01DX009 (ip), vehicle: saline with Tween-80",99 % of control
[Cl][Eu][Cl],T/C,[3],87 % of control
same,T/C,[4],91 % of control
CN(C)c1ccc(N=C(C#N)c2ccc(Cl)cc2)cc1,T/C,"dose: 50.0 mg/kg/injection, schedule: Q04DX003 (ip), vehicle: Klucel (hydroxypropylcellulose) (HPC)",99 % of control
same,T/C,[5],96 % of control
same,T/C,[6],103 % of control
same,T/C,[7],96 % of control
CCC1=CC2CN(CCc3c([nH]c4ccccc34)C(C(=O)OC)(c3cc4c(cc3OC)N(C)C3C(O)(C(=O)OC)C(OC(C)=O)C5(CC)CCCN6CCC43C65)C2)C1 (centres undefined),T/C,"dose: 0.06 mg/kg/injection, schedule: Q01DX009 (ip), vehicle: water",95 % of control
same,T/C,"dose: 0.13 mg/kg/injection, schedule: Q01DX009 (ip), vehicle: water",94 % of control
same,T/C,"dose: 0.25 mg/kg/injection, schedule: Q01DX009 (ip), vehicle: water",94 % of control
same,T/C,"dose: 0.5 mg/kg/injection, schedule: Q01DX009 (ip), vehicle: water",90 % of control
same,T/C,"dose: 1.0 mg/kg/injection, schedule: Q01DX001 (ip), vehicle: water",100 % of control and 115 % of control
same,T/C,"dose: 1.0 mg/kg/injection, schedule: Q01DX009 (ip), vehicle: water",90 % of control
same,T/C,"dose: 2.0 mg/kg/injection, schedule: Q01DX001 (ip), vehicle: water",107 % of control and 100 % of control
same,T/C,"dose: 2.0 mg/kg/injection, schedule: Q01DX009 (ip), vehicle: water",106 % of control and 110 % of control
same,T/C,"dose: 4.0 mg/kg/injection, schedule: Q01DX001 (ip), vehicle: water",110 % of control and 108 % of control
same,T/C,"dose: 4.0 mg/kg/injection, schedule: Q01DX009 (ip), vehicle: water",109 % of control and 111 % of control
same,T/C,"dose: 8.0 mg/kg/injection, schedule: Q01DX001 (ip), vehicle: water",119 % of control and 109 % of control and 115 % of control
same,T/C,"dose: 8.0 mg/kg/injection, schedule: Q01DX009 (ip), vehicle: water",122 % of control
same,T/C,"dose: 16.0 mg/kg/injection, schedule: Q01DX001 (ip), vehicle: water",122 % of control and 112 % of control and 116 % of control
same,T/C,"dose: 32.0 mg/kg/injection, schedule: Q01DX001 (ip), vehicle: water",122 % of control and 115 % of control and 119 % of control
O=c1[nH]c2ncccc2c(O)c1-c1ccccc1,T/C,[3],107 % of control
same,T/C,[4],96 % of control
same,T/C,[8],96 % of control
CC(=O)c1cc(C(O)C(O)C(O)C(O)CO)[nH]c1C (centres undefined),T/C,"dose: 50.0 mg/kg/injection, schedule: Q01DX005 (ip), vehicle: saline",108 % of control
same,T/C,"dose: 100.0 mg/kg/injection, schedule: Q01DX005 (ip), vehicle: saline",108 % of control
same,T/C,"dose: 200.0 mg/kg/injection, schedule: Q01DX005 (ip), vehicle: saline",110 % of control
Cc1cccc(C2(C)C(=O)c3ccccc3C2=O)c1,T/C,"dose: 100.0 mg/kg/injection, schedule: Q04DX002 (ip), vehicle: saline",100 % of control
same,T/C,"dose: 200.0 mg/kg/injection, schedule: Q04DX002 (ip), vehicle: saline",105 % of control
same,T/C,"dose: 400.0 mg/kg/injection, schedule: Q04DX002 (ip), vehicle: saline",102 % of control
CN1c2ccccc2C(C)(C)C12C=Cc1cc(O)ccc1O2 (centres undefined),T/C,[3],93 % of control
same,T/C,[4],96 % of control
same,T/C,[8],113 % of control
CCN(CC)CC(=O)O[C@]1(CC)C(=O)OCc2c1cc1n(c2=O)Cc2cc3ccccc3nc2-1,T/C,"dose: 0.5 mg/kg/injection, schedule: Q01DX005 (ip), vehicle: water",110 % of control
same,T/C,"dose: 1.0 mg/kg/injection, schedule: Q01DX005 (ip), vehicle: water",115 % of control
same,T/C,"dose: 2.0 mg/kg/injection, schedule: Q01DX005 (ip), vehicle: water",115 % of control
same,T/C,"dose: 8.0 mg/kg/injection, schedule: Q01DX005 (ip), vehicle: water",161 % of control and 163 % of control
CC(C)CC(NC(=O)OCCc1ccccn1)C(=O)NC(Cc1ccccc1)C(=O)OC(C)(C)C (centres undefined),T/C,[1],101 % of control
same,T/C,[2],95 % of control
same,T/C,"dose: 240.0 mg/kg/injection, schedule: Q01DX005 (ip), vehicle: Klucel (hydroxypropylcellulose) (HPC)",94 % of control
COC1=C(OC)C(=O)C(C(=O)CCCCC(=O)O)=C(C)C1=O,T/C,"dose: 60.0 mg/kg/injection, schedule: Q01DX005 (ip), vehicle: saline with Tween-80",107 % of control
same,T/C,"dose: 120.0 mg/kg/injection, schedule: Q01DX005 (ip), vehicle: saline with Tween-80",101 % of control
same,T/C,"dose: 240.0 mg/kg/injection, schedule: Q01DX005 (ip), vehicle: saline with Tween-80",107 % of control
CC1CN(CCC#N)CC(C)O1 (centres undefined),T/C,"dose: 25.0 mg/kg/injection, schedule: Q01DX009 (ip), vehicle: saline",101 % of control
same,T/C,[3],101 % of control
same,T/C,[4],101 % of control
same,T/C,[8],104 % of control
O=[N+]([O-])c1ccc(/C=C/C=C\c2cccc(S(=O)(=O)F)c2)c(Cl)c1,T/C,[5],90 % of control
same,T/C,[6],90 % of control
same,T/C,[7],90 % of control
CCN1C(=O)C(C)C(=O)N(C)C1=O (centres undefined),T/C,"dose: 60.0 mg/kg/injection, schedule: Q01DX005 (ip), vehicle: saline",110 % of control
same,T/C,"dose: 120.0 mg/kg/injection, schedule: Q01DX005 (ip), vehicle: saline",100 % of control
same,T/C,"dose: 240.0 mg/kg/injection, schedule: Q01DX005 (ip), vehicle: saline",100 % of control
